From ChEMBL document CHEMBL3044606, “Binding of sodium houttuyfonate analogues to bovine serum albumin revealed by fluoresence quenching study” (Med Chem Res, 2010)

Legend:
Type in all cases: ADME
Conditions in all cases: cattle, isolated protein; call rule not given here
Albumin [1] = target: T1, Albumin (Bos taurus, UniProt P02769); experiment: Binding affinity to Bos taurus (bovine) serum albumin assessed as decrease in decrease in absorption at 50 uM after 5 min by UV-Vis spectrophotometric analysis; set-up: scale not given: the % may be the effect or the level left
Albumin [2] = target: T1, Albumin; experiment: Binding affinity to Bos taurus (bovine) serum albumin after 5 min at 37 degC by Stern-Volmer plot analysis
Albumin [3] = target: T1, Albumin; experiment: Binding affinity to Bos taurus (bovine) serum albumin after 5 min at 25 degC by Stern-Volmer plot analysis
Albumin [4] = target: T1, Albumin; experiment: Binding affinity to Bos taurus (bovine) serum albumin assessed as shift in emission wavelength at 25 to 200 uM after 5 min by fluorimetric analysis
Albumin [5] = target: T1, Albumin; experiment: Binding affinity to Bos taurus (bovine) serum albumin assessed as decrease in fluorescence at 1:25 protein:compound ratio after 5 min by fluorimetric analysis
Albumin [6] = target: T1, Albumin; experiment: Binding affinity to Bos taurus (bovine) serum albumin assessed as decrease in fluorescence after 5 min by fluorimetric analysis

T1 sequence (P02769 whole entry): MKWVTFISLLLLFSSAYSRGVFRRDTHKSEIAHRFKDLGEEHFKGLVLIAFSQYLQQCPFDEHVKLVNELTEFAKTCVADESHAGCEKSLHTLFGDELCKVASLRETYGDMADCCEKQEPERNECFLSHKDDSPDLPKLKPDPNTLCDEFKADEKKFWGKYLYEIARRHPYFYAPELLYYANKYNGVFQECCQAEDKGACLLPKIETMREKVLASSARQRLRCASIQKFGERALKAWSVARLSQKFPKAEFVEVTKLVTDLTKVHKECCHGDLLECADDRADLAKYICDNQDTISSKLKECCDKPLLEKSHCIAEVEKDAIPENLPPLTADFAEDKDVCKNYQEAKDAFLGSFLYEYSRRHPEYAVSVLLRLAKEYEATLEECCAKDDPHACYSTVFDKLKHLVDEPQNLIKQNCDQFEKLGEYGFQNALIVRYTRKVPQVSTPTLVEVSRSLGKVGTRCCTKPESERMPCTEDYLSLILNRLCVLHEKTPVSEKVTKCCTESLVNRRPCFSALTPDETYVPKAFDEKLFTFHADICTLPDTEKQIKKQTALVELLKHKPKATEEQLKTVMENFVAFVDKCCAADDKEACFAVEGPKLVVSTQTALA

Structure (SMILES)	Activity (Albumin [1]) [%]	KSV (Albumin [2]) [×10³ /M]	Kq (Albumin [2]) [×10¹² /M/s]	K (Albumin [3]) [×10⁶ /M]	KSV (Albumin [3]) [×10³ /M]	Kq (Albumin [3]) [×10¹² /M/s]	Activity (Albumin [4])	Activity (Albumin [5])	Activity (Albumin [6])
CCCCCCCCCCCC(=O)CC(O)S(=O)(=O)[O-].[Na+] (stereo not given) [DODECANOYL ACETAL SODIUM SULFITE]	90	72	7.2	0.197	147.9	14.79	Not Active	Active	Dose-dependent effect
CCCCCC(=O)CC(O)S(=O)(=O)[O-].[Na+] (stereo not given) [HEXANOYL ACETAL SODIUM SULFITE]	50	73.5	7.35	6.7081	36.7	3.67	Not Active	Not Active	Dose-dependent effect

Further lines, results first:

Activity (Albumin [1]) [%]	KSV (Albumin [2]) [×10³ /M]	Kq (Albumin [2]) [×10¹² /M/s]	K (Albumin [3]) [×10⁶ /M]	KSV (Albumin [3]) [×10³ /M]	Kq (Albumin [3]) [×10¹² /M/s]	Activity (Albumin [4])	Activity (Albumin [5])	Activity (Albumin [6])	Structure (SMILES)
50	529.2	52.92	691.83	381.3	38.13	Not Active	Active	Dose-dependent effect	CCCCCCCC(=O)CC(O)S(=O)(=O)[O-].[Na+] (stereo not given) [OCTANOYL ACETAL SODIUM SULFITE]
90	93.2	9.32	1360.5	121.7	12.17	Not Active	Active	Dose-dependent effect	CCCCCCCCCCCCCC(=O)CC(O)S(=O)(=O)[O-].[Na+] (stereo not given) [TETRADECANOYL ACETAL SODIUM SULFITE]
90	113	11.3	84.606	217.3	21.73	Not Active	Active	Dose-dependent effect	CCCCCCCCCC(=O)CC(O)S(=O)(=O)[O-].[Na+] (stereo not given) [SODIUM HOUTTUYFONATE]
